The nature of data set [1]: absorption spectrum (maximum absorption wavelength, molar extinction coefficient). The format is physicochemical.
Data set [2] is described as follows: singlet oxygen efficiency test, reference rose bengal. It counts as physicochemical.

As for `COc1c(NC2(CO)CC2)c2c(=O)cc(OC)c3c4c(OC)cc(=O)c5c(O)c(NC6(CO)CC6)c6c(c(c1C(C(C)=O)C(C)=C6)c23)c54` (stereo not drawn) [HB-35b], in data set [1], the maximum absorption wavelength was found to be 620 nm and the molar extinction coefficient was 31,500 M^−1cm^−1. For the same molecule, the singlet oxygen yield in data set [2] is listed as 30%.
`COCCOCCC(=O)N1CCC(CNc2c(NCC3CCN(C(=O)CCOCCOC)CC3)c3c(=O)cc(OC)c4c5c(OC)cc(=O)c6c(O)c(OC)c7c(c(c2C=C(C)C7C(C)=O)c34)c65)CC1` (stereo not drawn) [HB-31a-PEG1]: in data set [1], the maximum absorption wavelength turned out to be 622 nm and the molar extinction coefficient is given as 32,000 M^−1cm^−1. Moreover, the singlet oxygen yield in data set [2] turned out to be 32%.
In the case of `COCCOCCOCCOCCOCCOCCOC(=O)CCCCCNc1c(O)c2c(=O)cc(OC)c3c4c(OC)cc(=O)c5c(NCCCCCC(=O)OCCOCCOCCOCCOCCOCCOC)c(OC)c6c(c(c1C=C(C)C6)c23)c54` [HC-9b-PEG6], in data set [1], the maximum absorption wavelength is 622 nm and the molar extinction coefficient is 30,500 M^−1cm^−1. The molecule further displayed a singlet oxygen yield in data set [2] of 30%.
As for `COc1c(O)c2c(=O)cc(OC)c3c4c(OC)cc(=O)c5c(NCCSCCOCCO)c(NCCSCCOCCO)c6c(c(c1C(C(C)=O)C(C)=C6)c23)c54` (stereo not drawn) [HB-6a-PEG1], in data set [1], the maximum absorption wavelength is 622 nm and the molar extinction coefficient was 30,500 M^−1cm^−1. Further, the singlet oxygen yield in data set [2] came to 28%.
As to `COCCOCCC(=O)OCCOCCNc1c(NCCOCCOC(=O)CCOCCOC)c2c(=O)cc(OC)c3c4c(OC)cc(=O)c5c(O)c(OC)c6c(c(c1C=C(C)C6)c23)c54` [HC-1a-PEG1], in data set [1], the maximum absorption wavelength is recorded as 622 nm and the molar extinction coefficient is reported as 30,500 M^−1cm^−1. Also, the singlet oxygen yield in data set [2] is listed as 32%.
The corresponding values for `COc1c(O)c2c(=O)cc(OC)c3c4c(OC)cc(=O)c5c(NCc6cccc[n+]6CCCC(=O)O)c(NCc6cccc[n+]6CCCC(=O)O)c6c(c(c1C(C(C)=O)C(C)=C6)c23)c54` (stereo not drawn) [HB-38a-N—COOH] are 620 nm, 22,000 M^−1cm^−1 and 20%.
Turning to `COc1c2c3c4c(c(NO)c(=O)c5c(O)cc(OC)c(c6c(OC)cc(NO)c(c1=O)c63)c54)C=C(C)C2` [HC-37d], in data set [1], the maximum absorption wavelength amounted to 620 nm and the molar extinction coefficient is on record as 32,000 M^−1cm^−1. In data set [2], this molecule registered a singlet oxygen yield of 33%.
In the case of `COc1c(NCCCC(=O)O)c2c(=O)cc(OC)c3c4c(OC)cc(=O)c5c(O)c(NCCCC(=O)O)c6c(c(c1C(C(C)=O)C(C)=C6)c23)c54` (stereo not drawn) [HB-8b], in data set [1], the maximum absorption wavelength is given as 618 nm and the molar extinction coefficient was 28,500 M^−1cm^−1. Moreover, the singlet oxygen yield in data set [2] was 26%.
In the case of `COCCOC(=O)CCCNc1c(NCCCC(=O)OCCOC)c2c(=O)cc(OC)c3c4c(OC)cc(=O)c5c(O)c(OC)c6c(c(c1C=C(C)C6)c23)c54` [HC-8a-PEG1], in data set [1], the maximum absorption wavelength came out at 621 nm and the molar extinction coefficient is recorded as 30,000 M^−1cm^−1. Besides, the singlet oxygen yield in data set [2] is 28%.
As to `COc1c2c3c4c(c(NC(CO)C(=O)O)c(=O)c5c(NC(CO)C(=O)O)cc(OC)c(c6c(OC)cc(O)c(c1=O)c63)c54)C=C(C)C2C(C)=O` (stereo not drawn) [HB-23c], in data set [1], the maximum absorption wavelength amounted to 622 nm and the molar extinction coefficient is 22,000 M^−1cm^−1. In data set [2], this molecule had a singlet oxygen yield of 22%.
`COc1c2c3c4c(c(NCCCS(=O)(=O)O)c(=O)c5c(O)cc(OC)c(c6c(OC)cc(NCS(=O)(=O)O)c(c1=O)c63)c54)C=C(C)C2` [HC-45d]: in data set [1], the maximum absorption wavelength was determined as 624 nm and the molar extinction coefficient was 21,000 M^−1cm^−1. Besides, the singlet oxygen yield in data set [2] was 21%.
The corresponding values for `COc1c2c3c4c(c(NCCS(=O)(=O)OC)c(=O)c5c(O)cc(OC)c(c6c(OC)cc(NCCS(=O)(=O)OC)c(c1=O)c63)c54)C=C(C)C2C(C)=O` (stereo not drawn) [HB-12d] are 624 nm, 21,500 M^−1cm^−1 and 21%.
The corresponding values for `COCCOCCNC(=O)CCNc1c(NCCC(=O)NCCOCCOC)c2c(=O)cc(OC)c3c4c(OC)cc(=O)c5c(O)c(OC)c6c(c(c1C=C(C)C6C(C)=O)c23)c54` (stereo not drawn) [HB-10a-NH-PEG1] are 621 nm, 31,500 M^−1cm^−1 and 30%.
With `COC(=O)C1CCC(CNc2c(O)c3c(=O)cc(OC)c4c5c(OC)cc(=O)c6c(NCC7CCC(C(=O)OC)CC7)c(OC)c7c(c(c2C=C(C)C7C(C)=O)c34)c65)CC1` (stereo not drawn) [HB-13b-AcE], in data set [1], the maximum absorption wavelength is recorded as 623 nm and the molar extinction coefficient was 27,000 M^−1cm^−1. In data set [2], this molecule came in with a singlet oxygen yield of 24%.
Regarding `COc1c(O)c2c(=O)cc(OC)c3c4c(OC)cc(=O)c5c(NCS(=O)(=O)O)c(NCCCS(=O)(=O)O)c6c(c(c1CC(C)=C6)c23)c54` [HC-45a], in data set [1], the maximum absorption wavelength was determined as 613 nm and the molar extinction coefficient is listed as 21,000 M^−1cm^−1. The same molecule had a singlet oxygen yield in data set [2] of 18%.
`COCCOCCOCCOCCOCCOCCOCCOCCOCCNC(=O)C1CCC(CNc2c3c4c5c(c(OC)c(=O)c6c(O)cc(OC)c(c7c(OC)cc(NCC8CCC(C(=O)NCCOCCOCCOCCOCCOCCOCCOCCOCCOC)CC8)c(c2=O)c74)c65)C(C(C)=O)C(C)=C3)CC1` (stereo not drawn) [HB-13c-NH-PEG8]: in data set [1], the maximum absorption wavelength is on record as 630 nm and the molar extinction coefficient was 33,500 M^−1cm^−1. The same molecule displayed a singlet oxygen yield in data set [2] of 39%.
Regarding `COc1c2c3c4c(c(NCC5CCC(C(=O)NCCCC[P+](c6ccccc6)(c6ccccc6)c6ccccc6)CC5)c(=O)c5c(O)cc(OC)c(c6c(OC)cc(NCC7CCC(C(=O)NCCCC[P+](c8ccccc8)(c8ccccc8)c8ccccc8)CC7)c(c1=O)c63)c54)C=C(C)C2` (stereo not drawn) [HC-13d-NH—C4-PPh3+], in data set [1], the maximum absorption wavelength was determined as 618 nm and the molar extinction coefficient is reported as 31,500 M^−1cm^−1. Also, the singlet oxygen yield in data set [2] was determined as 30%.
As to `COCCOCCC(=O)OCC1(Nc2c(NC3(COC(=O)CCOCCOC)CC3)c3c(=O)cc(OC)c4c5c(OC)cc(=O)c6c(O)c(OC)c7c(c(c2C=C(C)C7C(C)=O)c34)c65)CC1` (stereo not drawn) [HB-35a-PEG1], in data set [1], the maximum absorption wavelength was 624 nm and the molar extinction coefficient is reported as 31,500 M^−1cm^−1. In data set [2], the singlet oxygen yield turned out to be 34%.
Take `CCNc1c2c3c4c(c(OC)c(=O)c5c(NC6CCCC6)cc(OC)c(c6c(OC)cc(O)c(c1=O)c63)c54)C(C(C)=O)C(C)=C2` (stereo not drawn) [HB-44d]: in data set [1], the maximum absorption wavelength came out at 622 nm and the molar extinction coefficient is listed as 21,500 M^−1cm^−1. This molecule showed a singlet oxygen yield in data set [2] of 21%.
The corresponding values for `COc1c2c3c4c(c(NCC[N+]56CC[N+](C)(CC5)CC6)c(=O)c5c(NCC[N+]67CC[N+](C)(CC6)CC7)cc(OC)c(c6c(OC)cc(O)c(c1=O)c63)c54)C=C(C)C2C(C)=O` (stereo not drawn) [HB-41c] are 621 nm, 33,500 M^−1cm^−1 and 35%.
Turning to `COc1c2c3c4c(c(NCCNCCOCCO)c(=O)c5c(O)cc(OC)c(c6c(OC)cc(NCCNCCOCCO)c(c1=O)c63)c54)C=C(C)C2C(C)=O` (stereo not drawn) [HB-5d-PEG1], in data set [1], the maximum absorption wavelength was determined as 625 nm and the molar extinction coefficient is 30,500 M^−1cm^−1. In data set [2], this molecule returned a singlet oxygen yield of 32%.

Source of the values: US11439707B2, “Hypocrellin derivative substituted both in a peri-position and in 2-position by amino, preparation method, and application thereof” (priority 2017, dated 2022).
